Tests used:
Format in all cases: cell-based
IFNg = assay: Suppression of pro-inflammatory responses in isolated cells: IFNg; settings: for activity at 8 µM: read-out: IFNg (% control) at 8 μM
NO = assay: Suppression of pro-inflammatory responses in isolated cells: NO; settings: for activity at 8 µM: read-out: NO (% control) at 8 μM; for Potency in NO suppression vs. Dexamethasone: relative to Dexamethasone
KC = assay: LPS-stimulated mouse whole blood, production of the chemotactic cytokine KC (bioplex); settings: Neutrophil, 1.5 h; fresh mouse whole blood stimulated by LPS, incubated 90 minutes; read-out: EC50 of modulation of the neutrophil migration factor KC
Method: FIG. 2. is a graph showing the response of murine blood cells to varying concentrations of a compound of the invention (see Example 31) based on the production of the chemotactic cytokine “KC”. Fresh mouse whole blood was stimulated by LPS and incubated for 90 minutes. KC was quantified by bioplex.

| Molecule | activity at 8 µM (IFNg) [%] | activity at 8 µM (NO) [%] | Potency in NO suppression vs. Dexamethasone (NO) | further results |
| --- | --- | --- | --- | --- |
| CCC1OC(=O)C(C)C(OC2CC(C)(OC)C(O)C(C)O2)C(C)C(OC2OC(C)CC(N(C)CC3CO3)C2O)C(C)(O)CC(C)C(=O)C(C)C(O)C1(C)O (stereo not shown) [Example 67, 3′-N-demethyl-3′-N-(oxiranylmethyl)erythromycin] |  |  |  | IFNg (% control) at 8 μM (IFNg): 6.0 % control; NO (% control) at 8 μM (NO): 70.0 % control |
| C[C@@H]1C[C@H]2[C@@H]3CCC4=CC(=O)C=C[C@]4(C)[C@@]3(F)[C@@H](O)C[C@]2(C)[C@@]1(O)C(=O)CO [Dexamethasone, reference compound] | 4.3 | 3.4 |  |  |
| CC[C@H]1OC(=O)[C@H](C)[C@@H](O[C@H]2C[C@@](C)(OC)[C@@H](O)[C@H](C)O2)[C@H](C)[C@@H](O[C@@H]2O[C@H](C)CC(N(C)CC(O)COc3cccc(O)c3)[C@H]2O)[C@](C)(O)C[C@@H](C)CN(C)[C@H](C)[C@@H](O)[C@]1(C)O (stereo partly shown) [Example 59] | 96.9 | 99.2 |  |  |
| CC[C@H]1OC(=O)[C@H](C)[C@@H](O[C@H]2C[C@@](C)(OC)[C@@H](O)[C@H](C)O2)[C@H](C)[C@@H](O[C@@H]2O[C@H](C)CC(N(C)CC(O)COC(=O)CNC(=O)OC(C)(C)C)[C@H]2O)[C@](C)(O)C[C@@H](C)CN(C)[C@H](C)[C@@H](O)[C@]1(C)O (stereo partly shown) [Example 63] | 4.4 | 3.9 |  |  |
| CC[C@H]1OC(=O)[C@H](C)[C@@H](O[C@H]2C[C@@](C)(OC)[C@@H](O)[C@H](C)O2)[C@H](C)[C@@H](O[C@@H]2O[C@H](C)CC(N(C)CC(O)COC(=O)c3nccc4ccccc34)[C@H]2O)[C@](C)(O)C[C@@H](C)CN(C)[C@H](C)[C@@H](O)[C@]1(C)O (stereo partly shown) [Example 65] | 30.9 | 77.6 |  |  |
| CCCCN(CCCC)CCCNCC(O)CN(C)C1C[C@@H](C)O[C@@H](O[C@@H]2[C@@H](C)[C@H](O[C@H]3C[C@@](C)(OC)[C@@H](O)[C@H](C)O3)[C@@H](C)C(=O)O[C@H](CC)[C@@](C)(O)[C@H](O)[C@@H](C)N(C)C[C@H](C)C[C@@]2(C)O)[C@@H]1O (stereo partly shown) [Example 49] | 4.3 | 48.2 |  |  |
| CCCN(CCO)CC(O)CN(C)C1C[C@@H](C)O[C@@H](O[C@@H]2[C@@H](C)[C@H](O[C@H]3C[C@@](C)(OC)[C@@H](O)[C@H](C)O3)[C@@H](C)C(=O)O[C@H](CC)[C@@](C)(O)[C@H](O)[C@@H](C)N(C)C[C@H](C)C[C@@]2(C)O)[C@@H]1O (stereo partly shown) [Example 50] | 4 | 3.9 |  |  |
| CC[C@H]1OC(=O)[C@H](C)[C@@H](OC2CC(C)(OC)C(O)C(C)O2)[C@H](C)[C@@H](OC2OC(C)CC(NC)C2O)C(C)(O)C[C@@H](C)C(=O)[C@H](C)[C@@H](O)C1(C)O (stereo partly shown) [desmethyl erythromycin, reference compound] |  |  |  | IFNg (% control) at 8 μM (IFNg): 6.3 % control; NO (% control) at 8 μM (NO): 37.1 % control |
| CC[C@H]1OC(=O)[C@H](C)[C@@H](O[C@H]2C[C@@](C)(OC)[C@@H](O)[C@H](C)O2)[C@H](C)[C@@H](O[C@@H]2O[C@H](C)CC(N(C)CC(O)COc3ccc(B(O)O)cc3)[C@H]2O)[C@](C)(O)C[C@@H](C)CN(C)[C@H](C)[C@@H](O)[C@]1(C)O (stereo partly shown) [Example 61] | 15.6 | 74.2 |  |  |
| CCCCCCCCNCC(O)CN(C)C1C[C@@H](C)O[C@@H](O[C@@H]2[C@@H](C)[C@H](O[C@H]3C[C@@](C)(OC)[C@@H](O)[C@H](C)O3)[C@@H](C)C(=O)O[C@H](CC)[C@@](C)(O)[C@H](O)[C@@H](C)N(C)C[C@H](C)C[C@@]2(C)O)[C@@H]1O (stereo partly shown) [Example 31] | 4.4 | 4.7 |  | EC50 (KC): ~100 nM |
| CC[C@H]1OC(=O)[C@H](C)C2(O)O[C@@](C)(C[C@@H](C)CN(C)[C@H](C)[C@@H](O)[C@]1(C)O)[C@H](O[C@@H]1O[C@H](C)CC(N(C)CC(O)COC(=O)c3cnc4ccccc4c3)C1O)[C@H]2C (stereo partly shown) [Example 75] | 88.8 | 96.8 |  |  |
| CC[C@H]1OC(=O)[C@H](C)[C@@H](O[C@H]2C[C@@](C)(OC)[C@@H](O)[C@H](C)O2)[C@H](C)[C@@H](O[C@@H]2O[C@H](C)CC(N(C)CC(O)COc3ccc(C(=O)OC)cc3)[C@H]2O)[C@](C)(O)C[C@@H](C)CN(C)[C@H](C)[C@@H](O)[C@]1(C)O (stereo partly shown) [Example 62] | 5.3 | 63.4 |  |  |
| CC[C@H]1OC(=O)[C@H](C)[C@@H](O[C@H]2C[C@@](C)(OC)[C@@H](O)[C@H](C)O2)[C@H](C)[C@@H](O[C@@H]2O[C@H](C)CC(N(C)CC(O)CN3CCN(C=O)CC3)[C@H]2O)[C@](C)(O)C[C@@H](C)CN(C)[C@H](C)[C@@H](O)[C@]1(C)O (stereo partly shown) [Example 56] |  |  | 0.6 |  |
| CCCCC(CC)CNCC(O)CN(C)C1C[C@@H](C)O[C@@H](O[C@@H]2[C@@H](C)[C@H](O[C@H]3C[C@@](C)(OC)[C@@H](O)[C@H](C)O3)[C@@H](C)C(=O)O[C@H](CC)[C@@](C)(O)[C@H](O)[C@@H](C)N(C)C[C@H](C)C[C@@]2(C)O)[C@@H]1O (stereo partly shown) [Example 33] | 3.8 | 3.2 |  |  |
| CC[C@H]1OC(=O)[C@H](C)[C@@H](O[C@H]2C[C@@](C)(OC)[C@@H](O)[C@H](C)O2)[C@H](C)[C@@H](O[C@@H]2O[C@H](C)CC(N(C)CC(O)CNc3ncc(C)s3)[C@H]2O)[C@](C)(O)C[C@@H](C)CN(C)[C@H](C)[C@@H](O)[C@]1(C)O (stereo partly shown) [Example 41] |  |  | 0.5 |  |
| CC[C@H]1OC(=O)[C@H](C)[C@@H](O[C@H]2C[C@@](C)(OC)[C@@H](O)[C@H](C)O2)[C@H](C)[C@@H](O[C@@H]2O[C@H](C)CC(N(C)CC(O)CNCC(OC)OC)[C@H]2O)[C@](C)(O)C[C@@H](C)CN(C)[C@H](C)[C@@H](O)[C@]1(C)O (stereo partly shown) [Example 35] |  |  | 0.5 |  |
| CC[C@H]1OC(=O)[C@H](C)[C@@H](O[C@H]2C[C@@](C)(OC)[C@@H](O)[C@H](C)O2)[C@H](C)[C@@H](O[C@@H]2O[C@H](C)CC(N(C)CC(O)CNc3cc(C)ccn3)[C@H]2O)[C@](C)(O)C[C@@H](C)CN(C)[C@H](C)[C@@H](O)[C@]1(C)O (stereo partly shown) [Example 42] |  |  | 0.8 |  |
| CC[C@H]1OC(=O)[C@H](C)[C@@H](O[C@H]2C[C@@](C)(OC)[C@@H](O)[C@H](C)O2)[C@H](C)[C@@H](O[C@@H]2O[C@H](C)CC(N(C)CC(O)COc3ccc(OC)cc3)[C@H]2O)[C@](C)(O)C[C@@H](C)CN(C)[C@H](C)[C@@H](O)[C@]1(C)O (stereo partly shown) [Example 60] | 5.7 | 33.7 |  |  |
| CC[C@H]1OC(=O)[C@H](C)[C@@H](O[C@H]2C[C@@](C)(OC)[C@@H](O)[C@H](C)O2)[C@H](C)[C@@H](O[C@@H]2O[C@H](C)CC(N(C)CC(O)CNCCCCN)[C@H]2O)[C@](C)(O)C[C@@H](C)CN(C)[C@H](C)[C@@H](O)[C@]1(C)O (stereo partly shown) [Example 29] |  |  | 0.6 |  |
| CCCCCNCC(O)CN(C)C1C[C@@H](C)O[C@@H](O[C@@H]2[C@@H](C)[C@H](O[C@H]3C[C@@](C)(OC)[C@@H](O)[C@H](C)O3)[C@@H](C)C(=O)O[C@H](CC)[C@@](C)(O)[C@H](O)[C@@H](C)N(C)C[C@H](C)C[C@@]2(C)O)[C@@H]1O (stereo partly shown) [Example 32] | 3.7 | 6.8 |  |  |
| descladinosyltetraacetal azithromycin |  |  | 0.6 |  |
| CC[C@H]1OC(=O)[C@H](C)[C@@H](OC2C[C@@](C)(OC)[C@@H](O)[C@H](C)O2)C[C@@H](OC2O[C@H](C)C[C@H](N(C)CC(O)CNc3ncc(C)s3)[C@H]2O)[C@](C)(O)C[C@@H](C)C(=O)[C@H](C)[C@@H](O)[C@]1(C)O (stereo partly shown) [Example 68] | 4.3 | 2.9 |  |  |
| CC[C@H]1OC(=O)[C@H](C)[C@@H](O[C@H]2C[C@@](C)(OC)[C@@H](O)[C@H](C)O2)[C@H](C)[C@@H](O[C@@H]2O[C@H](C)CC(N(C)CC(O)CN3CCC(O)CC3)[C@H]2O)[C@](C)(O)C[C@@H](C)CN(C)[C@H](C)[C@@H](O)[C@]1(C)O (stereo partly shown) [Example 47] |  |  | 0.5 |  |

— patent US8461120B2, “Macrocyclic compounds pounds and methods of use thereof” (Synovo GmbH, priority 2004, dated 2013)
